Measurements as given in ChEMBL document CHEMBL1135897, “Design and synthesis of a novel L-dopa-entacapone codrug” (J Med Chem, 2002).

Legend:
[1] = Half-life period for the hydrolysis to entacopone and […] was determined in a liver homogenate at pH 7.4.; assay type: ADME, tissue-based
[2] = The half-life period, to be stable in the stomach and liver at pH 5.0, was determined; assay type: ADME, tissue-based

`CCN(CC)C(=O)/C(C#N)=C/c1cc(OC(=O)N[C@@H](Cc2ccc(O)c(O)c2)C(=O)OC)c(O)c([N+](=O)[O-])c1` showed a half-life [1] of 7 min and a half-life [2] of 66 min.
